Measurements from PMC10850145, “Hormonal steroids induce multidrug resistance and stress response genes in Neisseria gonorrhoeae by binding to MtrR” (Nature Communications, 2024).
Values joined by “and” are separate entries in the source; they are usually repeats but may differ in a detail not shown here. Identical values can stand only once.

Columns and labels:
[1] = target: T1, MtrR (Neisseria gonorrhoeae, UniProt P39897); test: Isothermal titration calorimetry, ligand binding to MtrR WT; settings: ITC
T1 construct: Hexa-histidine tag with TEV protease cleavage site (N, cleaved yes); made in house; host or cells: E. coli Rosetta Gami B(DE3) pLysS
T1 sequence (P39897 whole entry): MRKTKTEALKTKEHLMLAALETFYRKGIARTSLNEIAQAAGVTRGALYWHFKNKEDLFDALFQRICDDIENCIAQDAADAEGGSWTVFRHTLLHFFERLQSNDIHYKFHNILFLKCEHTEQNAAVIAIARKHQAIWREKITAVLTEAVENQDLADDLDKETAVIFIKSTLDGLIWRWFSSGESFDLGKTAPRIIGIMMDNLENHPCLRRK

[2] = system: FA19 mtrD::kan (KH14); test: MIC of steroidal hormones on GC agar, FA19 mtrD::kan (KH14); type: cell-based, Neisseria gonorrhoeae
Experimental: To determine the minimal inhibitory concentrations (MICs) by the steroidal hormones and their effect on antimicrobial susceptibility, 5 x 10^5 CFU and 1:5 serial dilutions of gonococcal strains were spotted on GC agar plates containing different concentrations of antibiotics and/or hormones as indicated. Antimicrobial susceptibility was assessed after 24 h incubation.
Table S1. Steroidal hormones are substrates of the MtrCDE efflux pump
Progesterone Testosterone
*Minimal inhibition concentration is defined by the lowest concentration at which visible growth is […]

[3] = target: T2, MtrR binding to mtrCDE operator (21mer) (Neisseria gonorrhoeae, UniProt P39897); test: Fluorescence polarization based DNA binding assay, mtrCDE operator; settings: mtrCDE 21mer + 125 µM steroid
T2 construct: Hexa-histidine tag with TEV protease cleavage site (N, cleaved yes); made in house; host or cells: E. coli Rosetta Gami B(DE3) pLysS
T2 sequence (P39897 whole entry): as above
Experimental: Fluorescence polarization based-DNA binding data were collected using a Panvera Beacon 2000 fluorescence polarization system (Invitrogen) and analyzed with Prism (Graphpad Software 9, 10). Purified MtrR was buffer exchanged into “DNA” binding buffer (150 mM NaCl, 20 mM Tris-HCl pH 7.5, 2.5% glycerol, 1 mM TCEP). […] The reported oligoduplexes containing the rpoH and mtrCDE binding site differ in lengths, 27mer and 21mer, respectively[17],[21]. […] BSA and dI-dC are included as carriers and to control for nonspecific DNA binding. Samples were excited at 490 nm and polarized emissions measured at 530 nm. Controls were run with no protein (DNA ± methanol, hormonal steroids) to ensure that millipolarization values were not affected by experimental conditions alone. The binding affinity of protein for DNA was determined using the following equation: P = Pf + (Pb – Pf) [M] / (Kd + [M]) where P is the measured polarization, Pf is the polarization of free DNA, Pb is the polarization of the completely bound DNA, Kd is the equilibrium dissociation constant, and M is the concentration of protein. Pb and Kd were determined by nonlinear least-squares analysis. At least three independent experimental measurements were averaged for each reported binding constant.

[4] = system: FA19-rpoH-lacZ; test: Gonococcal growth in liquid culture (GC broth) with hormones (Fig S7)

C[C@]12CC[C@@H]3c4ccc(O)cc4CC[C@H]3[C@@H]1CC[C@@H]2O [β-Estradiol, β-estradiol]
binding stoichiometry N (ligand per MtrR) [1]: ~ 1
Kd ([1]; 25 °C, 1% MeOH, read-out: equilibrium dissociation constant (Kd), MtrR WT): 1.67 µM and ~1.67 µM
binding stoichiometry N (ligand per MtrR) ([1]; listed as EST): one molecule of steroid per MtrR monomer
MIC ([2]; Neisseria gonorrhoeae): 320 µg/mL and 1180 µM
effect of mtrD deletion on MIC ([2]; vs FA19): lowered
fluorescence polarization, MtrR titration ([3]; MtrR WT dimer 0.00 nM): 0.00 mP
fluorescence polarization, MtrR titration ([3]; MtrR WT dimer 6.35 nM): 4.51 mP and 6.27 mP and 3.99 mP
fluorescence polarization, MtrR titration ([3]; MtrR WT dimer 11.32 nM): 5.41 mP and 7.10 mP and 5.13 mP
fluorescence polarization, MtrR titration ([3]; MtrR WT dimer 16.21 nM): 7.14 mP and 8.80 mP and 6.33 mP
fluorescence polarization, MtrR titration ([3]; MtrR WT dimer 35.50 nM): 8.94 mP and 8.19 mP
fluorescence polarization, MtrR titration ([3]; MtrR WT dimer 73.35 nM): 10.97 mP and 13.97 mP and 11.09 mP
fluorescence polarization, MtrR titration ([3]; MtrR WT dimer 110.67 nM): 13.61 mP and 15.83 mP and 13.69 mP
fluorescence polarization, MtrR titration ([3]; MtrR WT dimer 147.65 nM): 16.87 mP and 18.60 mP and 16.09 mP
fluorescence polarization, MtrR titration ([3]; MtrR WT dimer 220.59 nM): 20.11 mP and 24.13 mP and 19.63 mP
fluorescence polarization, MtrR titration ([3]; MtrR WT dimer 292.55 nM): 24.17 mP and 25.77 mP and 23.16 mP
fluorescence polarization, MtrR titration ([3]; MtrR WT dimer 363.86 nM): 26.44 mP and 29.33 mP and 25.99 mP
fluorescence polarization, MtrR titration ([3]; MtrR WT dimer 434.54 nM): 30.01 mP and 30.57 mP and 27.99 mP
fluorescence polarization, MtrR titration ([3]; MtrR WT dimer 504.61 nM): 31.07 mP and 33.77 mP and 30.59 mP
fluorescence polarization, MtrR titration ([3]; MtrR WT dimer 574.07 nM): 34.21 mP and 36.80 mP and 32.93 mP
fluorescence polarization, MtrR titration ([3]; MtrR WT dimer 711.46 nM): 37.61 mP and 38.13 mP and 35.23 mP
fluorescence polarization, MtrR titration ([3]; MtrR WT dimer 848.00 nM): 39.37 mP and 41.63 mP and 41.06 mP
growth curve reading after BLANKING ([4]; 0 hr, 0.1 µM): 0.013
growth curve reading, raw replicates ([4]; 0 hr, 0.1 µM): 0.046
growth curve reading after BLANKING ([4]; 0 hr, 1 µM): 0.013
growth curve reading, raw replicates ([4]; 0 hr, 1 µM): 0.046
growth curve reading after BLANKING ([4]; 0 hr, 10 µM): 0.013
growth curve reading, raw replicates ([4]; 0 hr, 10 µM): 0.046
growth curve reading after BLANKING ([4]; 0 hr, 25 µM): 0.013
growth curve reading, raw replicates ([4]; 0 hr, 25 µM): 0.046
growth curve reading after BLANKING ([4]; 0 hr, 50 µM): 0.013
growth curve reading, raw replicates ([4]; 0 hr, 50 µM): 0.046
growth curve reading after BLANKING ([4]; 1.18 hr, 0.1 µM): 0.020
growth curve reading, raw replicates ([4]; 1.18 hr, 0.1 µM): 0.052 and 0.053
growth curve reading after BLANKING ([4]; 1.18 hr, 1 µM): 0.020
growth curve reading, raw replicates ([4]; 1.18 hr, 1 µM): 0.054 and 0.052
growth curve reading after BLANKING ([4]; 1.18 hr, 10 µM): 0.020
growth curve reading, raw replicates ([4]; 1.18 hr, 10 µM): 0.053 and 0.054
growth curve reading after BLANKING ([4]; 1.18 hr, 25 µM): 0.021
growth curve reading, raw replicates ([4]; 1.18 hr, 25 µM): 0.053 and 0.056
growth curve reading after BLANKING ([4]; 1.18 hr, 50 µM): 0.019
growth curve reading, raw replicates ([4]; 1.18 hr, 50 µM): 0.052 and 0.053
growth curve reading after BLANKING ([4]; 2 hr, 0.1 µM): 0.030
growth curve reading, raw replicates ([4]; 2 hr, 0.1 µM): 0.062 and 0.065
growth curve reading after BLANKING ([4]; 2 hr, 1 µM): 0.030
growth curve reading, raw replicates ([4]; 2 hr, 1 µM): 0.063
growth curve reading after BLANKING ([4]; 2 hr, 10 µM): 0.031
growth curve reading, raw replicates ([4]; 2 hr, 10 µM): 0.063 and 0.065
growth curve reading after BLANKING ([4]; 2 hr, 25 µM): 0.030
growth curve reading, raw replicates ([4]; 2 hr, 25 µM): 0.062 and 0.064
growth curve reading after BLANKING ([4]; 2 hr, 50 µM): 0.030
growth curve reading, raw replicates ([4]; 2 hr, 50 µM): 0.063
growth curve reading after BLANKING ([4]; 3 hr, 0.1 µM): 0.041
growth curve reading, raw replicates ([4]; 3 hr, 0.1 µM): 0.076 and 0.072
growth curve reading after BLANKING ([4]; 3 hr, 1 µM): 0.041
growth curve reading, raw replicates ([4]; 3 hr, 1 µM): 0.074 and 0.073
growth curve reading after BLANKING ([4]; 3 hr, 10 µM): 0.043
growth curve reading, raw replicates ([4]; 3 hr, 10 µM): 0.079 and 0.074
growth curve reading after BLANKING ([4]; 3 hr, 25 µM): 0.044
growth curve reading, raw replicates ([4]; 3 hr, 25 µM): 0.078 and 0.075
growth curve reading after BLANKING ([4]; 3 hr, 50 µM): 0.040
growth curve reading, raw replicates ([4]; 3 hr, 50 µM): 0.074 and 0.072
growth curve reading after BLANKING ([4]; 4 hr, 0.1 µM): 0.055
growth curve reading, raw replicates ([4]; 4 hr, 0.1 µM): 0.087 and 0.090
growth curve reading after BLANKING ([4]; 4 hr, 1 µM): 0.056
growth curve reading, raw replicates ([4]; 4 hr, 1 µM): 0.089 and 0.088
growth curve reading after BLANKING ([4]; 4 hr, 10 µM): 0.057
growth curve reading, raw replicates ([4]; 4 hr, 10 µM): 0.088 and 0.092
growth curve reading after BLANKING ([4]; 4 hr, 25 µM): 0.060
growth curve reading, raw replicates ([4]; 4 hr, 25 µM): 0.093
growth curve reading after BLANKING ([4]; 4 hr, 50 µM): 0.052
growth curve reading, raw replicates ([4]; 4 hr, 50 µM): 0.082 and 0.088
growth curve reading after BLANKING ([4]; 5 hr, 0.1 µM): 0.072
growth curve reading, raw replicates ([4]; 5 hr, 0.1 µM): 0.104 and 0.106
growth curve reading after BLANKING ([4]; 5 hr, 1 µM): 0.072
growth curve reading, raw replicates ([4]; 5 hr, 1 µM): 0.105
growth curve reading after BLANKING ([4]; 5 hr, 10 µM): 0.071
growth curve reading, raw replicates ([4]; 5 hr, 10 µM): 0.103 and 0.105
growth curve reading after BLANKING ([4]; 5 hr, 25 µM): 0.076
growth curve reading, raw replicates ([4]; 5 hr, 25 µM): 0.113 and 0.106
growth curve reading after BLANKING ([4]; 5 hr, 50 µM): 0.065
growth curve reading, raw replicates ([4]; 5 hr, 50 µM): 0.094 and 0.103
growth curve reading after BLANKING ([4]; 5.95 hr, 0.1 µM): 0.090
growth curve reading, raw replicates ([4]; 5.95 hr, 0.1 µM): 0.124 and 0.123
growth curve reading after BLANKING ([4]; 5.95 hr, 1 µM): 0.093
growth curve reading, raw replicates ([4]; 5.95 hr, 1 µM): 0.126 and 0.125
growth curve reading after BLANKING ([4]; 5.95 hr, 10 µM): 0.086
growth curve reading, raw replicates ([4]; 5.95 hr, 10 µM): 0.118 and 0.119
growth curve reading, raw replicates ([4]; 5.95 hr, 25 µM): 0.134 and 0.124
growth curve reading after BLANKING ([4]; 5.95 hr, 50 µM): 0.083
growth curve reading, raw replicates ([4]; 5.95 hr, 50 µM): 0.110 and 0.122
growth curve reading, raw replicates ([4]; 6.82 hr, 0.1 µM): 0.137 and 0.133
growth curve reading, raw replicates ([4]; 6.82 hr, 1 µM): 0.143 and 0.139
growth curve reading after BLANKING ([4]; 6.82 hr, 10 µM): 0.092
growth curve reading, raw replicates ([4]; 6.82 hr, 10 µM): 0.127 and 0.123
growth curve reading after BLANKING ([4]; 6.82 hr, 25 µM): 0.114
growth curve reading, raw replicates ([4]; 6.82 hr, 25 µM): 0.156 and 0.139
growth curve reading, raw replicates ([4]; 6.82 hr, 50 µM): 0.124 and 0.136
